Data published in US5824299A, “Modulation of endothelial cell proliferation with IP-10” (President & Fellows of Harvard College, priority 1995, dated 1998).

Biological target: T1, murine IP10-AP (IP-10 alkaline phosphatase fusion protein) (UniProt P05187+P17515)
T1 construct: made in house; host or cells: NIH-3T3 clone 18.G5 (conditioned medium)
Experiment: glycosaminoglycan inhibition of IP10-AP binding to A20 B cells
Conditions: 15 nM mIP10-AP, 2 hours on ice; for inhibition of IP10-AP binding: at a concentration 100× below 1 mg/ml
Experimental: 107 A20 cells were incubated with 15 nM mIP10-AP in the presence of the indicated concentrations of heparin (H), heparan sulfate (HS), chondroitin sulfate B (CSB) and chondroitin sulfate A (CSA) for 2 hours on ice. Cells were then washed and bound IP10-AP assayed.
Binding Assays. For non-adherent cells, […] were washed 1× with ice-cold binding buffer (HBSS/10 mM Hepes/0.1% ETSA) and resuspended in the indicated concentration of IP10-AP and competitors in a total of […] ice-cold binding buffer. Binding was carried out for 2 hrs on ice with occasional mixing. Cells were washed 5× with ice cold binding buffer by repeated centrifugation at 4° C. Cell bound AP activity was determined by lysing cells in […] 10 mM Tris (pH 8.0)/1% Triton X-100, heating at 65° C. for 10 min to inactivate cellular alkaline phosphatase, and then centrifuging at 14,000×g for 10 min. 50 ml of the soluble lysate was then mixed with 50 ml 2× SEAP buffer in a 96 well plate at room temperature and the colormetric product was assayed in a kinetic plate reader at A405. For adherent cells with higher numbers of binding sites, binding was determined in 6 well cluster plates. Cells were washed 2× with ice-cold binding buffer and incubated with the indicated concentration of IP10-AP and competitor in a total of 500 ml of ice-cold binding buffer for 2 hrs in the cold room on a rocker platform. […] Non-specific binding was determined in one of two ways. For the calculation of the equilibrium constant, non-specific binding was determined by adding […] at each concentration of IP10-AP and performing the binding experiments in parallel exactly as described above. Specific binding was determined by subtracting background from total binding. Specific binding data was analyzed with the binding equation B=(Bmax×F)/(Kd+F) (where B is bound ligand and F is free ligand) (28) using the program KaleidaGraph on a Macintosh computer. […] 125I-IP10 binding to cells was performed essentially as described above for IP10-AP binding except the cell pellet with bound IP-10 was counted in a gamma-counter. […]

T1 sequence (P17515+P05187 fused): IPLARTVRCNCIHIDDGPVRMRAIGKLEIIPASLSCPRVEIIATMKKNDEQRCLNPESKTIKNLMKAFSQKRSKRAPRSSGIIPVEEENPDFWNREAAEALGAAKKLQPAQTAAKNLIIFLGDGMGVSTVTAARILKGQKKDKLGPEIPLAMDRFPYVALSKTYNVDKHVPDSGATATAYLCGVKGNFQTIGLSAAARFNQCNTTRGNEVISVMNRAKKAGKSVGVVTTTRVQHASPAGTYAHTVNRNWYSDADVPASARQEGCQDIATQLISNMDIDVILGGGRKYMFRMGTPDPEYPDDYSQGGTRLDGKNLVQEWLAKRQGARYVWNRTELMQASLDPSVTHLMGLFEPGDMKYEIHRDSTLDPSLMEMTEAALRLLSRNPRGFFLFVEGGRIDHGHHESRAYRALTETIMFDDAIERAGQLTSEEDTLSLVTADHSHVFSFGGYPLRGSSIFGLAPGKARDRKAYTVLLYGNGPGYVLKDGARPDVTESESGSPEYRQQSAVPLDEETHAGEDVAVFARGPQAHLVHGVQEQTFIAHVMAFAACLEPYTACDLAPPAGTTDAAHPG

heparan sulfate
inhibition of IP10-AP binding: complete inhibition

chondroitin sulfate A
effect on IP10-AP binding (1 mg/ml): no effect

heparin
inhibition of IP10-AP binding: complete inhibition
